Test results: PMC7139731, “Synthesis, Anticancer Evaluation and Structure-Activity Analysis of Novel (E)- 5-(2-Arylvinyl)-1,3,4-oxadiazol-2-yl)benzenesulfonamides” (International Journal of Molecular Sciences, 2020)
Several values for one entry are separate records, joined by “and”; a condition that tells them apart may be missing. Equal entries are not always repeated.

Columns and labels:
[1] = test system: HCT-116 cells (colon cancer); test: MTT cell viability assay, 72 h, HCT-116; format: cell-based, human; details: for IC50: MTT assay, 72 h incubation, mean ± SD
Description: (§1) Compounds 7–36 and 47–54 were tested regarding their effect on growth of three human cancer cell lines: colon cancer HCT-116, breast cancer MCF-7 and cervical cancer HeLa, as well as on noncancerous keratinocyte cell line HaCaT. Cell viability was measured with MTT assay after 72 h of incubation with tested compound in five concentration 1–100 μM. The MTT test enables us to quantify the living cells by measuring the activity of mitochondrial enzymes, enables reducing tetrazolium dye MTT to purple formazan. In this manner, IC50—molar concentration [µM] that inhibits 50% net cell growth—was determined (Table 1 and Table 2).
(§2) All chemicals, if not stated otherwise, were obtained from Sigma-Aldrich (St. Louis, MO, USA). The MCF-7, HeLa and HaCaT cell lines were purchased from Cell Lines Services (Eppelheim, Germany), the HCT-116 cell line were obtained from ATCC (ATCC-No: CCL-247). Cells were cultured in Dulbecco’s modified Eagle’s medium (DMEM) supplemented with 10% fetal bovine serum, 2 mM glutamine, 100 units/mL penicillin, and 100 μg/mL streptomycin. Cultures were maintained in a humidified atmosphere with 5% CO2 at 37 °C in an incubator (HeraCell, Heraeus, Langenselbold, Germany). Cell viability was determined using the MTT [3-(4,5-dimethylthiazol-2-yl)-2,5-diphenyl-tetrazolium bromide] assay. Stock solutions of the studied compounds were obtained in 100% DMSO. […] Cells were seeded in 96-well plates at a density of 5 × 10^3 cells/well and treated for 72 h with the examined compounds in the concentration range 1–100 μM (1, 10, 25, 50 and 100 μM). Following treatment, MTT (0.5 mg/mL) was added to the medium and cells were further incubated for 2 h at 37 °C. Cells were lysed with DMSO and the absorbance of the formazan solution was measured at 550 nm with a plate reader Victor 1420 multilabel counter, (PerkinElmer, Inc. Waltham, MA USA). […] The experiment was performed in triplicate. Values are expressed as the mean ± SD of at least three independent experiments

[2] = test system: MCF-7 cells (breast cancer); test: MTT cell viability assay, 72 h, MCF-7; format: cell-based, human; details: for IC50: MTT assay, 72 h incubation, mean ± SD
Description: as §1, §2

[3] = test system: HeLa cells (cervical cancer); test: MTT cell viability assay, 72 h, HeLa; format: cell-based, human; details: for IC50: MTT assay, 72 h incubation, mean ± SD
Description: as §1, §2

[4] = test system: HaCaT noncancerous keratinocyte cell line; test: MTT cell viability assay, 72 h, HaCaT; format: cell-based; details: for IC50: Homo sapiens, HaCaT, MTT assay, 72 h incubation, mean ± SD
Description: as §1, §2

Structure (SMILES)	IC50 ([1]; Homo sapiens, HCT-116, 72 h)	IC50 ([2]; Homo sapiens, MCF7, 72 h)	IC50 ([3]; Homo sapiens, HeLa, 72 h)	IC50 [4]	other results
NS(=O)(=O)c1cc(-c2nnc(/C=C/c3ccccc3)o2)c(Cl)cc1Cl [Compound 7, (E)-2,4-Dichloro-5-(5-styryl-1,3,4-oxadiazol-2-yl)benzenesulfonamide]	86 ± 3 µM	165 ± 5 µM	455 ± 14 µM	–	–
NS(=O)(=O)c1ccc(-c2nnc(/C=C/c3ccc(Cl)cc3)o2)cc1 [Compound 48, (E)-4-(5-(4-chlorostyryl)-1,3,4-oxadiazol-2-yl)benzenesulfonamide]	105 ± 5 µM	76 ± 4 µM	25 ± 3 µM	95 ± 4 µM	–
NS(=O)(=O)c1ccc(-c2nnc(/C=C/c3ccccc3)o2)cc1 [Compound 47, (E)-4-(5-Styryl-1,3,4-oxadiazol-2-yl)benzenesulfonamide]	185 ± 11 µM	168 ± 8 µM	130 ± 7 µM	–	–
Clc1ccc(/C=C/c2nnc(-c3ccc(Cl)cc3Cl)o2)cc1 [Compound 52, (E)-2-(4-Chlorostyryl)-5-(2,4-dichlorophenyl)-1,3,4-oxadiazole]	64 ± 3 µM	110 ± 6 µM	215 ± 6 µM	–	–
NS(=O)(=O)c1cc(-c2nnc(/C=C/c3cccs3)o2)c(Cl)cc1Cl [Compound 29, (E)-2,4-Dichloro-5-(5-(2-(thiophen-2-yl)vinyl)-1,3,4-oxadiazol-2-yl)benzenesulfonamide]	108 ± 4 µM	175 ± 12 µM	245 ± 12 µM	–	–
NS(=O)(=O)c1cc(-c2nnc(/C=C/c3c(Cl)cccc3Cl)o2)c(Cl)cc1Cl [Compound 13, (E)-2,4-Dichloro-5-(5-(2,6-dichlorostyryl)-1,3,4-oxadiazol-2-yl)benzenesulfonamide]	16 ± 1 µM	92 ± 5 µM	25 ± 1 µM	95 ± 2 µM	–
NS(=O)(=O)c1cc(-c2nnc(/C=C/c3ccncc3)o2)c(Cl)cc1SCc1ccccc1 [Compound 24, (E)-2-(Benzylthio)-4-chloro-5-(5-(2-(pyridin-4-yl)vinyl)-1,3,4-oxadiazol-2-yl)benzenesulfonamide]	31 ± 1 µM	225 ± 11 µM	135 ± 8 µM	150 ± 8 µM	–
NS(=O)(=O)c1cc(-c2nnc(/C=C/c3cccc(Cl)c3)o2)c(Cl)cc1SCc1ccccc1 [Compound 10]	–	–	–	–	activity against HaCaT compared with cancer lines ([4]; in words): at the same level as against cancer lines
NS(=O)(=O)c1cc(-c2nnc(/C=C/c3ccncc3)o2)c(Cl)cc1Cl [Compound 23, (E)-2,4-Dichloro-5-(5-(2-(pyridin-4-yl)vinyl)-1,3,4-oxadiazol-2-yl)benzenesulfonamide]	255 ± 13 µM	640 ± 13 µM	740 ± 37 µM	–	–
NS(=O)(=O)c1cc(-c2nnc(/C=C/c3ccco3)o2)c(Cl)cc1Cl [Compound 33, (E)-2,4-Dichloro-5-(5-(2-(furan-2-yl)vinyl)-1,3,4-oxadiazol-2-yl)benzenesulfonamide]	33 ± 1 µM	170 ± 9 µM	210 ± 8 µM	200 ± 12 µM	–
NS(=O)(=O)c1cc(-c2nnc(/C=C/c3ccc(C(F)(F)F)cc3)o2)c(Cl)cc1Cl [Compound 21, (E)-2,4-Dichloro-5-(5-(4-(trifluoromethyl)styryl)-1,3,4-oxadiazol-2-yl)benzenesulfonamide]	18 ± 1 µM	75 ± 2 µM	90 ± 2 µM	95 ± 4 µM	–
NS(=O)(=O)c1cc(-c2nnc(/C=C/c3cccc(Cl)c3)o2)c(Cl)cc1Cl [Compound 9, (E)-2,4-Dichloro-5-(5-(3-chlorostyryl)-1,3,4-oxadiazol-2-yl)benzenesulfonamide]	24 ± 1 µM	150 ± 10 µM	19 ± 1 µM	98 ± 2 µM	–
NS(=O)(=O)c1cc(-c2nnc(/C=C/c3ccccn3)o2)c(Cl)cc1Cl [Compound 27, (E)-2,4-Dichloro-5-(5-(2-(pyridin-2-yl)vinyl)-1,3,4-oxadiazol-2-yl)benzenesulfonamide]	117 ± 4 µM	110 ± 2 µM	170 ± 5 µM	–	–
NS(=O)(=O)c1cc(-c2nnc(/C=C/c3ccc([N+](=O)[O-])s3)o2)c(Cl)cc1Cl [Compound 31, (E)-2,4-Dichloro-5-(5-(2-(5-nitrothiophen-2-yl)vinyl)-1,3,4-oxadiazol-2-yl)benzenesulfonamide]	0.5 to 4.5 µM	–	–	8.1 ± 0.5 µM	IC50 [1]: 0.5 µM and 0.52 µM; increase of activity towards HCT-116 on addition of nitro group (31 vs 29) ([1]; compared with compound 29): over 200 times; increase of activity towards MCF-7 on addition of nitro group (31 vs 29) ([2]; compared with compound 29): 43 times; increase of activity towards HeLa on addition of nitro group (31 vs 29) ([3]; compared with compound 29): 54 times
NS(=O)(=O)c1cc(-c2nnc(/C=C/c3cccs3)o2)c(Cl)cc1SCc1ccccc1 [Compound 30, (E)-2-(Benzylthio)-4-chloro-5-(5-(2-(thiophen-2-yl)vinyl)-1,3,4-oxadiazol-2-yl)benzenesulfonamide]	32 ± 2 µM	66 ± 2 µM	87 ± 3 µM	85 ± 4 µM	–
NS(=O)(=O)c1cc(-c2nnc(/C=C/c3cccnc3)o2)c(Cl)cc1Cl [Compound 25, (E)-2,4-Dichloro-5-(5-(2-(pyridin-3-yl)vinyl)-1,3,4-oxadiazol-2-yl)benzenesulfonamide]	220 ± 11 µM	760 ± 24 µM	570 ± 17 µM	–	–
NS(=O)(=O)c1cc(-c2nnc(/C=C/c3ccc(Cl)cc3)o2)c(Cl)cc1Cl [Compound 11, (E)-2,4-Dichloro-5-(5-(4-chlorostyryl)-1,3,4-oxadiazol-2-yl)benzenesulfonamide]	22 ± 1 µM	28 ± 1 µM	42 ± 1 µM	51 ± 3 µM	–
FC(F)(F)c1ccc(/C=C/c2nnc(-c3ccc(Cl)cc3Cl)o2)cc1 [Compound 54, (E)-2-(2,4-Dichlorophenyl)-5-(4-(trifluoromethyl)styryl)-1,3,4-oxadiazole]	98 ± 1 µM	102 ± 5 µM	104 ± 3 µM	–	–
NS(=O)(=O)c1cc(-c2nnc(/C=C/c3cccnc3)o2)c(Cl)cc1SCc1ccccc1 [Compound 26, (E)-2-(Benzylthio)-4-chloro-5-(5-(2-(pyridin-3-yl)vinyl)-1,3,4-oxadiazol-2-yl)benzenesulfonamide]	85 ± 5 µM	350 ± 17 µM	135 ± 4 µM	–	–
NS(=O)(=O)c1ccc(-c2nnc(/C=C/c3ccc(C(F)(F)F)cc3)o2)cc1 [Compound 50, (E)-4-(5-(4-(Trifluoromethyl)styryl)-1,3,4-oxadiazol-2-yl)benzenesulfonamide]	155 ± 7 µM	280 ± 15 µM	520 ± 25 µM	–	–
N#Cc1ccc(/C=C/c2nnc(-c3cc(S(N)(=O)=O)c(SCc4ccccc4)cc3Cl)o2)cc1 [Compound 20, (E)-2-(Benzylthio)-4-chloro-5-(5-(4-cyanostyryl)-1,3,4-oxadiazol-2-yl)benzenesulfonamide]	9 to 12 µM	9 to 12 µM	9 to 12 µM	20 ± 1 µM	IC50 [1]: 10.3 ± 0.2 µM; IC50 [2]: 8.9 ± 0.5 µM; IC50 [3]: 12.2 ± 0.5 µM
Clc1ccc(-c2nnc(/C=C/c3ccccc3)o2)c(Cl)c1 [Compound 51, (E)-2-(2,4-Dichlorophenyl)-5-styryl-1,3,4-oxadiazole]	92 ± 2 µM	125 ± 6 µM	190 ± 10 µM	–	–
N#Cc1ccc(/C=C/c2nnc(-c3ccc(Cl)cc3Cl)o2)cc1 [Compound 53, (E)-4-(2-(5-(2,4-Dichlorophenyl)-1,3,4-oxadiazol-2-yl)vinyl)benzonitrile]	106 ± 3 µM	142 ± 6 µM	225 ± 11 µM	–	–
